# Measured values: US7820692B2, “Tetrahydro isoquinoline derivatives, preparation methods and medicinal uses thereof” (China Pharmaceutical University, priority 2006, dated 2010)
# “Also recorded” adds a separate entry of the source. Marks after values point to notes of the source that are not given here.
# Assays:
# κ-opioid receptor = κ-opioid receptor (Homo sapiens, UniProt P41145); test: Radioligand receptor binding assay, competition with [3H]diprenorphine, κ-receptor; details: for Ki: Ki=IC50/(1+[L]/Kd); for dpm: competition binding with κ-receptor, [3H]diprenorphine 0.5 nM; for dpm / inhibition at 10 µM / inhibition rate %: compound at 1 × 10^−5 M; for IC50: competition binding, κ-opioid receptor; for inhibition at 10 µM: read-out: inhibition rate %
# Protocol: (§1) The experiment test tubes are divided into total binding tubes and non-specific binding tubes, and several groups of sample tubes added with competitive ligand in different concentrations are provided. The total binding tube is added with expressed membrane receptor protein equivalent to 20 μg and [^3H] diprenorphine (0.5 nM) (1.44 Pbq/mol broad spectrum opioid antagonist, Amersham), the corresponding non-specific binding tubes are further added with 1 μM Naloxone (broad spectrum opioid antagonist, Sigma), the sample tubes are added with different concentrations compounds which are to be screened, the final volume is regulated to 100 μl with 50 mM Tris(Amresco)-HCl (pH 7.4). Incubation is performed at 30° C. for 30 min, and the tubes are placed into ice water to stop reaction. Negative pressure filter is performed in Millipore sample collector via GF/(Whatman) glass fiber filter paper. Ice cold 50 mM Tris-HCl (pH 7.4) is used to wash the filter paper for three times, each for 4 ml; Dry the filter paper and place it in 0.5 ml Eppendorff tube, and add 0.5 ml of lipophilic scintillator liquid (Reagent No. 1 Factory Of Shanghai Chemical Reagent Co. Ltd). Beckman LS 6500 multifunctional liquid scintillation counter is adopted for measuring radiation intensity, calculating inhibition rate is calculated, each concentration has three duplicated tubes, and each tube is independently tested for 3-4 times.
# (§2) IC50 value is calculated by software Prism 4.0.
# (§3) Ki=IC50/(1+[L]/Kd), ([L] is the concentration of added marked ligand, and Kd is equilibrium dissociation constant of radioligand).
# μ-opioid receptor = μ-opioid receptor (Homo sapiens, UniProt P35372); test: Radioligand receptor binding assay, competition with [3H]diprenorphine, μ-receptor; details: for Ki: Ki=IC50/(1+[L]/Kd); for IC50: competition binding, μ-opioid receptor; for receptor selectivity μKi/κKi: ratio of μ Ki to κ Ki; for inhibition at 1 µM: read-out: inhibition rate of medicine at 1 × 10^−6 M (μ)
# Protocol: as §1, §2, §3
# Kuming mice [1] = test: Mice hot plate method analgesic test; format: in vivo; details: for Analgesic experiment result, Mice hot plate method: subcutaneous injection, hot plate 55° C., value with range in brackets
# Protocol: (§4) Analgesic efficacy of the subject compound is determined by using model derived from mice hot plate method and mice writhing method (Methodology of Pharmacological Experiment, edition II, Xu Shuyun, People Medical Publishing Company, 1991).
# Experiment Animal: Kuming Mice (Female, 18-22 g)
# (§5) • (1) Selection of normal mice: the test room temperature is controlled at about 22° C., temperature of the hot plate of an pain threshold dector is regulated to 55° C., the duration from the moment the mice is put on the hot plate to the moment the mice start to lick the hind paw is recorded as pain threshold value, the test is repeated twice at interval of 20 min, and the mice with average pain threshold value no more than 30 sec is qualified mice. • (2) Experimental mice: the qualified mice are randomly divided into groups each having 10 mice, and subjected to subcutaneous injection. • Each group is tested for mice pain response time once every 5, 15, 30, 50, and 60 minute after administration, and the medicine is believed to be effective which response time beyond 1 min. • Mice Writhing Assay • I-6 is administered via subcutaneous injection, then 0.6% acetic acid solution (10 ml/kg) is administered after 30 min, and the number of the mice writhing within 15 min is recorded. 3.
# Kuming mice [2] = test: Mice writhing assay (acetic acid) analgesic test; format: in vivo; details: subcutaneous injection, 0.6% acetic acid after 30 min, writhing within 15 min
# Protocol: as §4, §5
# Kuming mice [3] = test: Analgesic tolerance test (hot plate, 9 days administration); format: in vivo; details: morphine 7 mg/kg subcutaneous injection
# Protocol: Kuming mice (18-20 g, male) are selected for test, and divided into physiological saline group, morphine group, and I-6 group.
# physiological saline group: subcutaneous administration, 0.2 mL for each mice.
# Morphine group: Day 1-3, subcutaneous injection, 7 mg/kg • Day 4-7, subcutaneous injection, 10 mg/kg • Day 8-9, subcutaneous injection, 15 mg/kg I-6 group: Day 1-9, subcutaneous injection, 25 μg/kg
# Hot plate method in mice is adopted as model, administration lasts for 9 days, analgesic effects before and after administration are determined every day, and if analgesic effect is attenuated after continuous administration of 3 days, the drug concentration will be increased, and if analgesic effect don't change, the drug concentration will not be changed.
# [4] = 1 × 10^−6 M, printed in the IC50 (M) μ column
Structure (SMILES),Ki (κ-opioid receptor) [µM],dpm (κ-opioid receptor) [dpm],IC50 (κ-opioid receptor) [µM],inhibition at 10 µM (κ-opioid receptor) [%],inhibition rate % (κ-opioid receptor) [%],further results
"COc1cc2c(cc1OC)C(C(=O)N1CCc3ccccc3C1CN1CCCC1)CC2=O (centres unmarked) [I-5, 1-(pyrrolidine-1-methyl)-2-(5,6-dimethoxy-2,3-dihydro-inden-3-keto-1-carbonyl)-1,2,3,4-tetrahydroisoquinoline]",0.00134,260.58,0.00469,99.5,–,Ki (μ-opioid receptor): 0.106 µM; IC50 (μ-opioid receptor): 0.318 µM; receptor selectivity μKi/κKi (μ-opioid receptor): 79
"COc1ccc2c(c1)C(C(=O)N1CCc3ccc(OC)cc3C1CN1CCCC1)CC2=O (centres unmarked) [I-19, 7-methoxy-1-(pyrrolidine-1-methyl)-2-(6-methoxy-2,3-dihydro-inden-3-keto-1-carbonyl)-1,2,3,4-tetrahydroisoquinoline]",–,799.91,–,–,82.9,–
"COc1cc2c(cc1OC)C(CN1CCCC1)N(C(=O)C1CC(=O)c3cc(OC)c(OC)cc31)CC2 (centres unmarked) [I-27, 6,7-dimethoxy-1-(pyrrolidine-1-methyl)-2-(5,6-dimethoxy-2,3-dihydro-inden-3-keto-1-carbonyl)-1,2,3,4-tetrahydroisoquinoline]",–,5257.44,–,–,0,–
"COc1ccc2c(c1)C(CN1CCCC1)N(C(=O)C1CC(=O)c3ccc(Cl)cc31)CC2 (centres unmarked) [I-18, 7-methoxy-1-(pyrrolidine-1-methyl)-2-(6-chloro-2,3-dihydro-inden-3-keto-1-carbonyl)-1,2,3,4-tetrahydroisoquinoline]",0.0171,281.00,0.0599,100,–,inhibition at 1 µM (μ-opioid receptor; [4]): 14%; melting point: 151 to 153 °C
"COc1ccc2c(c1)C(C(=O)N1CCc3cc(OC)c(OC)cc3C1CN1CCCC1)CC2=O (centres unmarked) [I-31, 6,7-dimethoxy-1-(pyrrolidine-1-methyl)-2-(6-methoxy-2,3-dihydro-inden-3-keto-1-carbonyl)-1,2,3,4-tetrahydroisoquinoline]",–,3271.85,–,–,11.2,–
"COc1ccc2c(c1)C(CN1CCCC1)N(C(=O)C1CC(=O)c3ccccc31)CC2 (centres unmarked) [I-14, 7-methoxy-1-(pyrrolidine-1-methyl)-2-(2,3-dihydro-inden-3-keto-1-carbonyl)-1,2,3,4-tetrahydroisoquinoline]",0.27,972.69,0.912,77.3,–,inhibition at 1 µM (μ-opioid receptor; [4]): 14.6%
"CN1CC[C@]23c4c5ccc(O)c4O[C@H]2[C@@H](O)C=C[C@H]3[C@H]1C5 [Morphine, morphine]",–,–,–,–,–,"Analgesic experiment result, Mice hot plate method (Kuming mice [1]): 6.949(5.682-8.500) mg/kg; Analgesic experiment result, Mice writhing assay (Kuming mice [2]): 0.840(0.558-1.265) mg/kg; analgesic effect on continuous administration (Kuming mice [3]; Day 3): no significant analgesic effect; also recorded: tolerance and efficacy of zero; analgesic effect on continuous administration (Kuming mice [3]; from Day 2): attenuated analgesic effect from Day 2"
"COc1ccc2c(c1)C(CN1CCCC1)N(C(=O)C1CC(=O)c3cc(OC)c(OC)cc31)CC2 (centres unmarked) [I-15, 7-methoxy-1-(pyrrolidine-1-methyl)-2-(5,6-dimethoxy-2,3-dihydro-inden-3-keto-1-carbonyl)-1,2,3,4-tetrahydroisoquinoline]",–,820.16,–,–,82.3,inhibition rate of medicine at 1 × 10^−6 M (μ) (μ-opioid receptor; [4]): 11.7% (^−6)^a
"O=C1CC(C(=O)N2CCc3ccccc3C2CN2CCCC2)c2ccccc21 (centres unmarked) [I-1, 1-(pyrrolidine-1-methyl)-2-(2,3-dihydro-inden-3-keto-1-carbonyl)-1,2,3,4-tetrahydroisoquinoline]",0.000438,212.91,0.00153,100,–,"inhibition at 1 µM (μ-opioid receptor; [4]): 18.7%; analgesic efficacy compared with morphine (Kuming mice [1]; mice hot plate method and mice writhing method): powerful analgesic efficacy; Analgesic experiment result, Mice hot plate method (Kuming mice [1]): 44.147(25.134-77.545) ug/kg; Analgesic experiment result, Mice writhing assay (Kuming mice [2]): 26.303(16.807-41.165) ug/kg"
"COc1cc2c(cc1OC)C(CN1CCCC1)N(C(=O)C1CC(=O)c3ccc(Cl)cc31)CC2 (centres unmarked) [I-30, 6,7-dimethoxy-1-(pyrrolidine-1-methyl)-2-(6-chloro-2,3-dihydro-inden-3-keto-1-carbonyl)-1,2,3,4-tetrahydroisoquinoline]",–,2269.71,–,–,40.6,–
"COc1ccc2c(c1)C(C(=O)N1CCc3ccccc3C1CN1CCCC1)CC2=O (centres unmarked) [I-13, 1-(pyrrolidine-1-methyl)-2-(6-methoxy-2,3-dihydro-inden-3-keto-1-carbonyl)-1,2,3,4-tetrahydroisoquinoline]",0.000909,211.54,0.00318,100,–,Ki (μ-opioid receptor): 0.133 µM; IC50 (μ-opioid receptor): 0.399 µM; receptor selectivity μKi/κKi (μ-opioid receptor): 146
"COc1cc2c(cc1OC)C(CN1CCCC1)N(C(=O)C1CC(=O)c3ccccc31)CC2 (centres unmarked) [I-26, 6,7-dimethoxy-1-(pyrrolidine-1-methyl)-2-(2,3-dihydro-inden-3-keto-1-carbonyl)-1,2,3,4-tetrahydroisoquinoline]",–,1883.77,–,–,51.9,–
